From patent US20220089662A1, “PREPRATION METHOD AND APPLICATION OF ANTI-INFLAMMATORY KIDNEY PROTECTING CLAM PEPTIDE” (Chenland Nutritionals Inc., priority 2020, published 2022)

Columns and labels:
[1] = tested on: spontaneously hypertensive rats (SHR); experiment: Anti-inflammatory test after administration in spontaneously hypertensive rats (serum IL-8, TNF-α, hs-CRP); format: in vivo, rat
Description: Anti-inflammatory test after administration in spontaneously hypertensive rats is as follows.
(§1) Spontaneously hypertensive rats were purchased from Beijing Weitong Lihua Experimental Animal Technology Co., Ltd.
(§2) Forty male spontaneously hypertensive rats (SHR), aged about 12 weeks and weighing about 270 G, were adaptively fed for one week. […] The rats in the AC group were given captopril 10 mg/kg by gavage, at the same time, the MC group was given the same volume of distilled water. The drug was administered once a day for 4 weeks. Serum IL-8, TNF-α and hs-CRP were measured, and the data were analyzed by SPSS software.

[2] = tested on: spontaneously hypertensive rats (SHR); experiment: Protection of renal function in spontaneously hypertensive rats (SCr, SUA, BUN); format: in vivo, rat; conditions: SHR serum, AC: captopril 10 mg/kg by gavage once a day for 4 weeks
Description: as §1
as §2, with “gavage, At” for “gavage, at”, “weeks. SCr, SUA” for “weeks. Serum IL-8, TNF-α”, “and BUN” for “and hs-CRP”

[3] = AC: captopril 10 mg/kg by gavage once a day for 4 weeks

Question: Which TNF-α [1, 3] does the source give for `C[C@H](CS)C(=O)N1CCC[C@H]1C(=O)O` [captopril] here?
Answer: 87.41 ± 19.19 pg/mL

Question: And the hs-CRP [1, 3]?
Answer: 1.53 ± 0.41 µg/L

Question: What about the “serum IL-8 level” value ([1]; positive drug group (captopril 10 mg/kg), 4 weeks) of the same compound?
Answer: 122 ± 12.15 pg/mL

Question: And the BUN [2]?
Answer: 10.56 ± 3.17 mmol/L

Question: And the SCr [2]?
Answer: 421.50 ± 101.20 µmol/L

Question: What about the SUA [2] of the same compound?
Answer: 211.60 ± 39.89 mg/L
